Target: BRD4(BD1) (Homo sapiens (Human), UniProt O60885)
Assay: In vitro enzyme inhibition assay (BRD4 AlphaScreen)
Format: binding
Details: in vitro enzyme inhibition assay
Experimental: His-tagged BRD4 was cloned, expressed and purified to homogeneity. […] BRD4 binding and inhibition was assessed by monitoring the interaction of biotinylated H4-tetraacetyl peptide (AnaSpec, H4K5/8/12/16(Ac), biotin-labeled) with the target using the AlphaScreen technology (Life Technologies). […] After 20 min incubation at room temp, Alpha streptavidin donor beads and Nickel Chelate acceptor beads were added to a final concentration of 5 μg/mL.
The ability of the compounds disclosed herein to inhibit BRD4 activity was quantified and the respective IC50 value was determined.

Cn1cc(-c2nc(S(C)(=O)=O)ncc2OCC2CC2)c2ccccc2c1=O [Example 311, 4-[5-(cyclopropylmethoxy)-2-methylsulfonylpyrimidin-4-yl]-2-methylisoquinolin-1-one]
IC50: < 500 nM

CCCc1ccc(S(C)(=O)=O)cc1-c1cn(C)c(=O)c2ccccc12 [Example 314, 2-methyl-4-(5-methylsulfonyl-2-propylphenyl)isoquinolin-1-one]
IC50: < 500 nM

Cn1cc(-c2cc(S(C)(=O)=O)ccc2CCC2CC2)ccc1=O [Example 315, 5-[2-(2-cyclopropylethyl)-5-methylsulfonylphenyl]-1-methylpyridin-2-one]
IC50: < 500 nM

CCc1ccc(S(C)(=O)=O)cc1-c1cn(C)c(=O)c2ccccc12 [Example 316, 4-(2-ethyl-5-methylsulfonylphenyl)-2-methylisoquinolin-1-one]
IC50: < 500 nM

CCCCc1ccc(S(C)(=O)=O)cc1-c1ccc(=O)n(C)c1 [Example 317, 5-(2-butyl-5-methylsulfonylphenyl)-1-methylpyridin-2-one]
IC50: < 500 nM

CCCCc1ccc(S(C)(=O)=O)cc1-c1cn(C)c(=O)c2ccccc12 [Example 318, 4-(2-butyl-5-methylsulfonylphenyl)-2-methylisoquinolin-1-one]
IC50: < 500 nM

Cn1cc(-c2cc(S(C)(=O)=O)ccc2CCC2CC2)c2ccccc2c1=O [Example 319, 4-[2-(2-cyclopropylethyl)-5-methylsulfonylphenyl]-2-methylisoquinolin-1-one]
IC50: < 500 nM

COc1ccc(COc2cc(-c3cc(C)c(=O)n(C)c3)cc(S(C)(=O)=O)c2)cc1 [Example 323, 5-[3-[(4-methoxyphenyl)methoxy]-5-methylsulfonylphenyl]-1,3-dimethylpyridin-2-one]
IC50: < 500 nM

Cc1cc(-c2cc(OCC(F)(F)F)cc(S(C)(=O)=O)c2)cn(C)c1=O [Example 328, 1,3-dimethyl-5-[3-methylsulfonyl-5-(2,2,2-trifluoroethoxy)phenyl]pyridin-2-one]
IC50: < 500 nM

Cc1cc(-c2cc(OCC3(C)COC3)cc(S(C)(=O)=O)c2)cn(C)c1=O [Example 329, 1,3-dimethyl-5-[3-[(3-methyloxetan-3-yl)methoxy]-5-methylsulfonylphenyl]pyridin-2-one]
IC50: < 500 nM

Cc1cc(-c2cc(OCc3ccccn3)cc(S(C)(=O)=O)c2)cn(C)c1=O [Example 330, 1,3-dimethyl-5-[3-methylsulfonyl-5-(pyridin-2-ylmethoxy)phenyl]pyridin-2-one]
IC50: < 500 nM

Cc1cc(-c2cc(OCc3ccc(F)cc3F)cc(S(C)(=O)=O)c2)cn(C)c1=O [Example 335, 5-[3-[(2,4-difluorophenyl)methoxy]-5-methylsulfonylphenyl]-1,3-dimethylpyridin-2-one]
IC50: < 500 nM

Cc1cc(-c2cc(OCc3cccnc3)cc(S(C)(=O)=O)c2)cn(C)c1=O [Example 338, 1,3-dimethyl-5-[3-methylsulfonyl-5-(pyridin-3-ylmethoxy)phenyl]pyridin-2-one]
IC50: < 500 nM

Cc1cc(-c2cc(OCc3cccc(C#N)c3)cc(S(C)(=O)=O)c2)cn(C)c1=O [Example 339, 3-[[3-(1,5-dimethyl-6-oxopyridin-3-yl)-5-methylsulfonylphenoxy]methyl]benzonitrile]
IC50: < 500 nM

CC#CCOc1cc(-c2cc(C)c(=O)n(C)c2)cc(S(C)(=O)=O)c1 [Example 340, 5-(3-but-2-ynoxy-5-methylsulfonylphenyl)-1,3-dimethylpyridin-2-one]
IC50: < 500 nM

COc1ccc(COc2cc(-c3cn(C)c(=O)c4ccccc34)cc(S(C)(=O)=O)c2)cc1 [Example 343, 4-[3-[(4-methoxyphenyl)methoxy]-5-methylsulfonylphenyl]-2-methylisoquinolin-1-one]
IC50: 500 to 5000 nM

Cn1cc(-c2cc(OCc3ccccc3)cc(S(C)(=O)=O)c2)c2ccccc2c1=O [Example 344, 2-methyl-4-(3-methylsulfonyl-5-phenylmethoxyphenyl)isoquinolin-1-one]
IC50: < 500 nM

From patent US10023592B2, “Bromodomain inhibitors” (Celgene Quanticel Research, Inc., priority 2013, dated 2018)
